Measurements from PMC2919490 (Journal of agricultural and food chemistry, 2010).
Read-outs that look alike come from different tables or passages of the source. Each block holds one compound with its values, some of them ahead of it.

How the values were obtained:
Caco-2 cells [1] = settings: cited from earlier work
[2] = especially under light exposure; cited from earlier work
[3] = Stability of transport study solutions in HBSS at 37 °C; format: physicochemical; settings: HBSS pH 6.8, 37 °C water bath, 0, 1, 2, 4 and 6 hour, UPLC-MS/MS
Caco-2 cell monolayer = format: in vitro ADME, human; settings: for Pa-b as percent of control: pH 6.8, 37 °C
Caco-2 cells [4] = experiment: Marker compounds hydrolysis and metabolism in Caco-2 transport study; format: in vitro ADME, human; settings: Caco-2 transport studies; for glucuronidation and sulfation metabolites: UPLC-MS/MS, of marker compounds and their aglycone; for hydrolysis to aglycone: aglycone by UPLC-MS/MS
[5] = format: in vitro ADME, human; settings: human, Caco-2, pH 6.8, efflux ratio (Pba/Pab), vectorial transport ratio
MRP2 = MRP2 (Homo sapiens, UniProt Q92887); experiment: Caco-2 transport of isoquercitrin in the presence of MRP2 inhibitor MK 571; format: in vitro ADME
SGLT1 = experiment: Caco-2 transport of isoquercitrin in the presence of phloridzin; format: in vitro ADME, human; settings: pure isoquercitrin 10 μM, 50 μM phloridzin
[6] = in product 1 matrix, control pure compound 10 μM
[7] = in product 2 matrix, control pure compound 10 μM
[8] = isoquercitrin in product 2, 50 μM MK 571
[9] = isoquercitrin in product 4, 50 μM MK 571
[10] = pure isoquercitrin 10 μM, 50 μM MK 571 at apical side

Chain of MRP2 (Q92887 whole entry): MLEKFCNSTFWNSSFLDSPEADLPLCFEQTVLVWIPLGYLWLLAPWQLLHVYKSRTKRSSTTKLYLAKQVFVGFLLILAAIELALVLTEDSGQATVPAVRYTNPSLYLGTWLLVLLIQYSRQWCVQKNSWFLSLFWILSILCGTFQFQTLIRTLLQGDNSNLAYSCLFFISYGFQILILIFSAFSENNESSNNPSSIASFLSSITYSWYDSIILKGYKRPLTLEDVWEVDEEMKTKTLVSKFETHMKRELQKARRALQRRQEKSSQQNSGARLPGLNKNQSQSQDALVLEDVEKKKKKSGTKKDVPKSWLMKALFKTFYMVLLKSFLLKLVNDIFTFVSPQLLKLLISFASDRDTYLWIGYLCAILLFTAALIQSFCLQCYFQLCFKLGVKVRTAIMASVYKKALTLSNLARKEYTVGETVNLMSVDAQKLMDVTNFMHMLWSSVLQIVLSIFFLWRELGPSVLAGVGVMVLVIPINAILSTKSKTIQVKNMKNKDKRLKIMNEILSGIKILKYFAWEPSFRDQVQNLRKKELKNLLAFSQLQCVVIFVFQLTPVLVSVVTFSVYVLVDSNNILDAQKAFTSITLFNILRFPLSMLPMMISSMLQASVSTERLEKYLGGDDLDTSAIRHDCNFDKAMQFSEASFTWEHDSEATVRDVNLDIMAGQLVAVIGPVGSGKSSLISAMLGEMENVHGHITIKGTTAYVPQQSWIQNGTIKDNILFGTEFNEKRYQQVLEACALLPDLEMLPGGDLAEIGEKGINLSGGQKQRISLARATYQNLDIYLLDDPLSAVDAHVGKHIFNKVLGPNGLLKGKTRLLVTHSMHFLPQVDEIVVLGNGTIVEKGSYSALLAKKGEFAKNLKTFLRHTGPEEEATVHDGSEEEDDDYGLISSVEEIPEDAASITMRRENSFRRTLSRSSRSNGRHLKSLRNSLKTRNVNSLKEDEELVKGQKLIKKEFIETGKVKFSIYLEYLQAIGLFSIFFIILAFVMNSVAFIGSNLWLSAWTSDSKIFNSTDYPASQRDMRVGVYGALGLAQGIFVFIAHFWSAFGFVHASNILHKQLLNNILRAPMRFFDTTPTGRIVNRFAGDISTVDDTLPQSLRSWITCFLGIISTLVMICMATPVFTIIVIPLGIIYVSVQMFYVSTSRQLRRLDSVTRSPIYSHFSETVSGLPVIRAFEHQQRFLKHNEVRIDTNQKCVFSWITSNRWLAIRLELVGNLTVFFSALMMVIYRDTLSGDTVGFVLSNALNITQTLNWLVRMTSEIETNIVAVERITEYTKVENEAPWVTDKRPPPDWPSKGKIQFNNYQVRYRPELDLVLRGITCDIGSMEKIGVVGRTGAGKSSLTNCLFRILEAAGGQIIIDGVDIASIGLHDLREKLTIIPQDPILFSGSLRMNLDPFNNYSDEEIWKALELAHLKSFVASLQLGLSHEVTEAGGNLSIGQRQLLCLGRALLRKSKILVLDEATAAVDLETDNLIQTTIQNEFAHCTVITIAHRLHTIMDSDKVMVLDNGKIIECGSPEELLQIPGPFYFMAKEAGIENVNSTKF

Compound: COc1ccc([C@@H]2CC(=O)c3c(O)cc(O[C@@H]4O[C@H](CO[C@@H]5O[C@@H](C)[C@H](O)[C@@H](O)[C@H]5O)[C@@H](O)[C@H](O)[C@H]4O)cc3O2)cc1O [hesperidin]
permeability (words) (Caco-2 cells [1]; HPLC-UV, 120 min transport): not permeable

Compound: Cc1cc(O)c2c(=O)c3c(O)cc(O)c4c5c(O)cc(O)c6c(=O)c7c(O)cc(C)c8c1c2c(c34)c(c78)c65 [hypericin]
stability in aqueous solutions [2]: highly unstable

stability in experimental solutions (relative peak area as a function of time) [3]: stable
Pa-b compared with control (Caco-2 cell monolayer; [6]): not altered
Pa-b as percent of control (Caco-2 cell monolayer; [7]): 54%
Pa-b as percent of control (Caco-2 cell monolayer; in product 4 matrix, control pure compound 10 μM): 46%
glucuronidation and sulfation metabolites (Caco-2 cells [4]): not detected
hydrolysis to aglycone (Caco-2 cells [4]): not hydrolyzed
Compound: O=c1c(O[C@@H]2O[C@H](CO)[C@H](O)[C@H](O)[C@H]2O)c(-c2ccc(O)c(O)c2)oc2cc(O)cc(O)c12 [hyperoside]

Compound: O=c1c(O[C@@H]2O[C@H](CO)[C@@H](O)[C@H](O)[C@H]2O)c(-c2ccc(O)c(O)c2)oc2cc(O)cc(O)c12 [isoquercitrin]
stability in experimental solutions (relative peak area as a function of time) [3]: stable
Pb-a as percent of control (Caco-2 cell monolayer; [6]): 78%
Pb-a as percent of control (Caco-2 cell monolayer; [7]): 42%
efflux ratio at 4 h, 10 µM [5]: 7.13
glucuronidation and sulfation metabolites (Caco-2 cells [4]): not detected
hydrolysis to aglycone (Caco-2 cells [4]): not hydrolyzed
efflux ratio at 4 h (MRP2; human, Caco-2, with MK 571, 50 µM): 0.4
Pa-b change with MK 571 (MRP2; [8]): didn't increase significantly
Pb-a reduction with MK 571 (MRP2; [8]): 1.8 times
Pa-b increase with MK 571 (MRP2; [9]): 2.9 times
Pb-a change with MK 571 (MRP2; [9]): didn't change
Pb-a versus Pa-b (MRP2; [9]): not statistically different
vectorial transport ratio (MRP2; pure isoquercitrin 10 μM, 50 μM MK 571): 1
Pa-b increase compared with control (MRP2; [10]): 3.2 times
Pb-a decrease compared with control (MRP2; [10]): 5.2 times
Pa-b increase compared to the control (SGLT1): 2.9 times
difference between Pa-b and Pb-a (SGLT1): diminished

efflux ratio (Pba/Pab) (Caco-2 cell monolayer; Caco-2, pH 6.8): 3.5
vectorial transport ratio (Caco-2 cell monolayer; human, Caco-2, 4 h, 50 µM, pH 6.8): 0.16
Compound: C[C@H]1O[C@H](OC[C@H]2O[C@@H](Oc3c(-c4ccc(O)cc4)oc4cc(O)cc(O)c4c3=O)[C@H](O)[C@@H](O)[C@@H]2O)[C@@H](O)[C@@H](O)[C@@H]1O [kaempferol-3-rutinoside]

Compound: C[C@@H]1O[C@@H](O[C@H]2[C@H](Oc3cc(O)c4c(c3)O[C@H](c3ccc(O)cc3)CC4=O)O[C@H](CO)[C@@H](O)[C@@H]2O)[C@H](O)[C@H](O)[C@H]1O [naringin]
permeability (Caco-2 cells [1]; Caco-2): 0.08 ×10⁻⁶ cm/s
permeability (words) (Caco-2 cells [1]; Caco-2): not permeable

glucuronidation and sulfation metabolites (Caco-2 cells [4]): not detected
hydrolysis to aglycone (Caco-2 cells [4]): not hydrolyzed
Compound: C[C@@H]1O[C@@H](OC[C@H]2O[C@@H](Oc3c(-c4ccc(O)c(O)c4)oc4cc(O)cc(O)c4c3=O)[C@H](O)[C@@H](O)[C@@H]2O)[C@H](O)[C@H](O)[C@H]1O [rutin]
